According to the supplement of paper PMC10307832:

Legend:
Experiment in all cases: relative viability (nuclei count vs DMSO), 5 days (fraction); higher = more cells survive
[1] = compound: C1CNCCC1C2=CC(=NN2)C3=CC=NC=C3 + CC(C)C[C@H](NC(=O)[C@H](Cc1ccccc1)NC(=O)c1cnccn1)B(O)O [Bortezomib] (partner 0.002 µM)
Summary of the method: (§1)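 After 5 days of treatment, lung cancer cells in 1536-well plates were fixed and stained in a single step (final 0.05% Triton X-100, 1% formaldehyde, 1 ug/ml Hoechst) and their nuclei counted on 4× images. Treatment had been applied by pin tool the day after seeding as one drug alone or as a fixed anchor-drug dose with five library-drug doses (not always all listed) in √10 steps. Relative viability is the nuclei count of treated wells divided by that of vehicle wells, and values are medians of duplicate plates.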

[2] = compound: C1CNCCC1C2=CC(=NN2)C3=CC=NC=C3 + Cc1cc(Nc2cc(N3CCN(C)CC3)nc(Sc3ccc(NC(=O)C4CC4)cc3)n2)n[nH]1 [Tozasertib] (partner 0.1 µM)
Summary of the method: as §1

[3] = compound: C[C@@H](N)c1ccc(C(=O)Nc2ccnc3[nH]ccc23)cc1 + N=C(N)NC(=N)NCCc1ccccc1 [Phenformin] (partner 250 µM)
Summary of the method: as §1

[4] = compound: C[C@@H](N)c1ccc(C(=O)Nc2ccnc3[nH]ccc23)cc1 + Nc1ncn([C@H]2C[C@H](O)[C@@H](CO)O2)c(=O)n1 [Decitabine] (partner 2 µM)
Summary of the method: as §1

Row | Cell Line | relative viability ([1]; first compound 0.08 µM) | relative viability ([1]; first compound 0.8 µM) | relative viability ([1]; first compound 2.53 µM) | relative viability ([1]; first compound 8 µM) | relative viability ([2]; first compound 0.08 µM) | relative viability ([2]; first compound 0.8 µM) | relative viability ([2]; first compound 2.53 µM) | relative viability ([2]; first compound 8 µM) | relative viability ([3]; first compound 0.04 µM) | relative viability ([3]; first compound 0.1265 µM) | relative viability ([3]; first compound 0.4 µM) | relative viability ([3]; first compound 1.265 µM) | relative viability ([3]; first compound 4 µM) | relative viability ([4]; first compound 0.04 µM) | relative viability ([4]; first compound 0.1265 µM) | relative viability ([4]; first compound 0.4 µM) | relative viability ([4]; first compound 1.265 µM) | relative viability ([4]; first compound 4 µM)
1 | PC-14 | 0.897 | 0.951 | 0.945 | 0.789 | 0.648 | 0.589 | 0.661 | 0.542 | 0.409 | 0.653 | 0.555 | 0.348 | 0.519 | 0.24 | 0.217 | 0.277 | 0.258 | 0.188
2 | RERF-LC-KJ | 1.09 | 1.22 | 1.16 | 1.12 | 0.525 | 0.51 | 0.591 | 0.426 | 0.417 | 0.435 | 0.446 | 0.434 | 0.425 | 0.762 | 0.764 | 0.75 | 0.806 | 0.634
3 | SK-LU-1 | 1 |  | 1.38 | 1.27 | 0.321 | 0.367 | 0.391 | 0.334 | 0.433 | 0.611 | 0.488 | 0.365 | 0.405 | 0.587 | 0.654 | 0.585 | 0.516 | 0.472
4 | SW 1573 | 0.75 | 1.22 | 1.11 | 1.12 |  | 0.202 | 0.174 | 0.148 | 0.363 | 0.487 | 0.368 | 0.363 | 0.284 | 0.569 | 0.577 | 0.567 | 0.497 | 0.301
